In patent US12466831B2, “Substituted amino triazolopyrimidine and amino triazolopyrazine adenosine receptor antagonists, pharmaceutical compositions and their use” (Merck Sharp & Dohme LLC, priority 2018, dated 2025):

Experiments:
[1] = target: T1, human A2a adenosine receptor (Homo sapiens, UniProt P29274); assay: A2a binding affinity using radioligand binding, Method (A); conditions: Method (A): [3H]SCH58261 filtration binding, membranes expressing human A2a
T1 construct: purchased Perkin Elmer RBHA2aM400UA; host or cells: HEK293 or CHO cells (recombinant expression)
T1 sequence (P29274 whole entry): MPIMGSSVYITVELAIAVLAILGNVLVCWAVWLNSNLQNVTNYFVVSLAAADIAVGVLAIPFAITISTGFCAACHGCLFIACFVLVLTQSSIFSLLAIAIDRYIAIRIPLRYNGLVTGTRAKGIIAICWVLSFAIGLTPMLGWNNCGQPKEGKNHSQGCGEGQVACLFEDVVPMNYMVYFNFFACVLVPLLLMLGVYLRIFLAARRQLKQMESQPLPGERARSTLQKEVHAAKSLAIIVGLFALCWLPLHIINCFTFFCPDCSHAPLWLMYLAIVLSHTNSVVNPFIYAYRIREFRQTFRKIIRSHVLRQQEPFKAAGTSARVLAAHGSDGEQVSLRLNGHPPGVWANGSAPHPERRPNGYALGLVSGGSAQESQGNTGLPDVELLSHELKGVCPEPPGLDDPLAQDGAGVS
Description: (§1) Method (A) describes the procedure used to measure A2a binding affinity using radioligand binding. Method (B) describes the procedure used to measure A2a binding affinity using SPA technology. The method used to measure A2b binding affinity is also described below. The method used to determine the A2a IC50 value reported for each compound in the table is indicated next to the reported value. The A2b IC50 value measured using the A2b binding affinity assay is shown in the table next to the compound under the corresponding A2a value.
The A2a receptor affinity binding assay measured the amount of binding of a tritiated ligand with high affinity for the A2a adenosine receptor to membranes made from HEK293 or CHO cells recombinantly expressing the human A2a adenosine receptor, in the presence of varying concentrations of a compound of the invention. The data were generated using either filtration binding or a homogenous scintillation proximity assay (SPA).
Method (A): Measurement of A2a Binding Affinity Using Radioligand Binding
148 μL (5 μg/mL) membranes (Perkin Elmer, Cat. No. RBHA2aM400UA) and 2 μL compounds of the invention to be tested (test compound) were transferred to individual wells of a 96-well polypropylene assay plate and incubated for 15 to 30 minutes at room temperature. [^3H] SCH58261 ((7-(2-phenylethyl)-5-amino-2-(2-furyl)-pyrazolo-[4,3-e]-1,2,4-triazolo[1,5-c]pyrimidine)) was diluted in assay buffer (50 mM Tris pH 7.4, 10 mM MgCl2, 0.005% Tween20) to a concentration of 4 nM and 50 μL transferred to each well of the assay plate. To define total and non-specific binding, wells containing 1% DMSO and 1 μM ZM241385 (Tocris Bioscience, Cat. No. 1036) respectively, were also included. The assay plate was incubated at room temperature for 60 minutes with agitation. Using a FilterMate Harvester® (Perkin Elmer), the contents of the assay plate were filtered through a UniFilter-96® PEI coated plate (Perkin Elmer Cat. No. 6005274 or 6005277). Filtering was achieved by aspirating the contents of the assay plate for 5 seconds, then washing and aspirating the contents three times with ice-cooled wash buffer (50 mM Tris-HCl pH 7.4, 150 mM NaCl) and allowing the vacuum manifold to dry the plate for 30 seconds. The filter plate was incubated for at least 1 hour at 55° C. and allowed to dry. The bottom of the filter plate was sealed with backing tape. 40 μL Ultima Gold™ (Perkin Elmer, Cat. No. 6013329) was added to each well of the filter plate and the top of the plate was sealed with TopSeal-A PLUS® clear plate seal (Perkin Elmer, Cat. No. 6050185). The plate was incubated for at least 20 minutes, and then the amount of radioactivity remaining in each well was determined using a TopCount® (Perkin Elmer) scintillation counter. After normalization to total and non-specific binding, the percent effect at each compound concentration was calculated. The plot of percent effect versus the log of compound concentration was analyzed electronically using a 4-parameter logistic fit based on the Levenberg-Marquardt algorithm to generate IC50 values.

[2] = target: T2, human A2b adenosine receptor (Homo sapiens, UniProt P29275); assay: A2b binding affinity, radioligand filtration binding assay; conditions: tritiated proprietary A2b antagonist, HEK293 membranes expressing human A2b
T2 construct: purchased Perkin Elmer ES-013-C; host or cells: HEK293 cells recombinantly expressing the receptor; membranes made from them
T2 sequence (P29275 1-332): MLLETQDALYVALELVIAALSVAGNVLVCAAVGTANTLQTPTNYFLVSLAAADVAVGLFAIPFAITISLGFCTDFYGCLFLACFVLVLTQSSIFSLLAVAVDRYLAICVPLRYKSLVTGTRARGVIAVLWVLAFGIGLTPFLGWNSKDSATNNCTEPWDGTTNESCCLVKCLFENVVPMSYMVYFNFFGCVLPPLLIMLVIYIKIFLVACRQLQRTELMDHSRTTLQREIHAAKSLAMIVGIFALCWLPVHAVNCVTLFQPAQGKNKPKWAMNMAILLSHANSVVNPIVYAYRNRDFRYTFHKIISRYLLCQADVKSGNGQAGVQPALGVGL
Description: as §1
Measurement of A2b Binding Affinity
The reported affinity of the compounds of the invention for the human A2b adenosine receptor was determined experimentally using a radioligand filtration binding assay. This assay measures the amount of binding of a tritiated proprietary A2b receptor antagonist, in the presence and absence of a compound of the invention, to membranes made from HEK293 cells recombinantly expressing the human A2b adenosine receptor (Perkin Elmer, Cat. No. ES-013-C).
148 μL (135 μg/mL) membranes and 2 μL test compounds were transferred to individual wells of a 96-well polypropylene assay plate and incubated for 15 to 30 minutes at room temperature with agitation. Tritiated radioligand was diluted to a concentration of 14 nM in assay buffer (phosphate buffered saline without Magnesium and Calcium, pH 7.4; GE Healthcare Life Sciences, Cat. No. SH30256.01) and then 50 μL of the solution were transferred to each well of the assay plate. To define total and non-specific binding, wells containing 1% DMSO and 20 μM N-ethylcarboxamidoadenosine (Tocris Bioscience, Cat. No. 1691) respectively, were also included. The wells of the assay plate were incubated at room temperature for 60 minutes with agitation, then filtered using a FilterMate Harvester® (Perkin Elmer) or similar equipment through a UniFilter-96® PEI coated plate (Perkin Elmer Cat. No. 6005274 or 6005277). Filtering was achieved by aspirating the contents of the assay plate for 5 seconds, then washing and aspirating the contents three times with ice-cooled wash buffer (assay buffer supplemented with 0.0025% Brij58) and allowing the vacuum manifold to dry the plate for 30 seconds. The filter plate was incubated for at least 1 hour at 55° C. and allowed to dry. The bottom of the filter plate was then sealed with backing tape. 40 μL Ultima Gold™ (Perkin Elmer, Cat. No. 6013329) was added to each well of the filter plate and the top of the plate was sealed with TopSeal-A PLUS® clear plate seal (Perkin Elmer, Cat. No. 6050185). The plates were then incubated for at least 20 minutes, and then the amount of radioactivity remaining in each well was determined using a TopCount® (Perkin Elmer) scintillation counter. After normalization to total and non-specific binding, the percent effect at each compound concentration was calculated. The plot of percent effect versus the log of compound concentration was analyzed electronically using a 4-parameter logistic fit based on the Levenberg-Marquardt algorithm to generate IC50 values.

| SMILES | IC50 [1] | IC50 [2] |
| --- | --- | --- |
| Cc1c(-c2ncco2)nc(N)n2nc(C3CCCC(C)(O)C3)nc12 (single isomer, unassigned) [Example 8.2-2, (1-R or S,3-R or S)-3-(5-amino-8-methyl-7-(oxazol-2-yl)-[1,2,4]triazolo[1,5-c]pyrimidin-2-yl)-1-methylcyclohexan-1-ol] | 227 nM | 7310 nM |
| Cc1c(-c2ncco2)nc(N)n2nc(C3CCCC(C)(O)C3)nc12 (single isomer, unassigned) [Example 8.3-1, (1-R or S,3-R or S)-3-(5-amino-8-methyl-7-(oxazol-2-yl)-[1,2,4]triazolo[1,5-c]pyrimidin-2-yl)-1-methylcyclohexan-1-ol] | 7.9 nM | 5560 nM |
| Cc1c(-c2ncco2)nc(N)n2nc(C3CCCC(C)(O)C3)nc12 (single isomer, unassigned) [Example 8.3-2, (1-R or S,3-R or S)-3-(5-amino-8-methyl-7-(oxazol-2-yl)-[1,2,4]triazolo[1,5-c]pyrimidin-2-yl)-1-methylcyclohexan-1-ol] | 0.9 nM | 64.5 nM |
| Cc1c(-c2cccc(F)c2)nc(N)c2nc(C3CCCC(C)(O)C3)nn12 (single isomer, unassigned) [Example 8.10-1, (1R,3S or 1S,3R or 1R,3R or 1S,3S)-1-3-(8-amino-6-(3-fluorophenyl)-5-methyl-[1,2,4]triazolo[1,5-a]pyrazin-2-yl)-1-methylcyclohexan-1-ol] | 175 nM | 2640 nM |
| Cc1c(-c2cccc(F)c2)nc(N)c2nc(C3CCCC(C)(O)C3)nn12 (single isomer, unassigned) [Example 8.10-2, (1R,3S or 1S,3R or 1R,3R or 1S,3S)-1-3-(8-amino-6-(3-fluorophenyl)-5-methyl-[1,2,4]triazolo[1,5-a]pyrazin-2-yl)-1-methylcyclohexan-1-ol] | 363 nM | 2540 nM |
| Cc1c(-c2cccc(F)c2)nc(N)c2nc(C3CCCC(C)(O)C3)nn12 (single isomer, unassigned) [Example 8.11-1, (1R,3S or 1S,3R or 1R,3R or 1S,3S)-1-3-(8-amino-6-(3-fluorophenyl)-5-methyl-[1,2,4]triazolo[1,5-a]pyrazin-2-yl)-1-methylcyclohexan-1-ol] | 132 nM | ≥ 10000 nM |
| Cc1c(-c2cccc(F)c2)nc(N)c2nc(C3CCCC(C)(O)C3)nn12 (single isomer, unassigned) [Example 8.11-2, (1R,3S or 1S,3R or 1R,3R or 1S,3S)-1-3-(8-amino-6-(3-fluorophenyl)-5-methyl-[1,2,4]triazolo[1,5-a]pyrazin-2-yl)-1-methylcyclohexan-1-ol] | 13.5 nM | 238 nM |
| Cc1c(-c2ncco2)nc(N)n2nc([C@@H]3CCCNC3)nc12 [Example 2.3, (R)-8-methyl-7-(oxazol-2-yl)-2-(piperidin-3-yl)-[1,2,4]triazolo[1,5-c]pyrimidin-5-amine] | 20.5 nM | 1040 nM |
| Cc1c(-c2cccc(F)c2)nc(N)n2nc([C@@H]3CCCNC3)nc12 [Example 2.4, (R)-7-(3-fluorophenyl)-8-methyl-2-(piperidin-3-yl)-[1,2,4]triazolo[1,5-c]pyrimidin-5-amine] | 57.7 nM | 873 nM |
| Cc1c(-c2ncco2)nc(N)c2nc(C3(c4ncccc4F)CC3)nn12 [Example 2.7, 2-(1-(3-fluoropyridin-2-yl)cyclopropyl)-5-methyl-6-(oxazol-2-yl)-[1,2,4]triazolo[1,5-a]pyrazin-8-amine] | 56.4 nM | 2910 nM |

Second part, the molecule after the results:

| IC50 [1] | IC50 [2] | SMILES |
| --- | --- | --- |
| 6.7 nM | 411 nM | Cc1c(-c2ncco2)nc(N)c2nc(C3CCCC(C)(O)C3)nn12 (single isomer, unassigned) [Example 8.4, (1R,3S and 1S,3R) or (1R,3R and 1S,3S)-3-(8-amino-5-methyl-6-(oxazol-2-yl)-[1,2,4]triazolo[1,5-a]pyrazin-2-yl)-1-methylcyclohexan-1-ol] |
| 265 nM | 9140 nM | Cc1c(-c2ncco2)nc(N)c2nc(C3CCCC(C)(O)C3)nn12 (single isomer, unassigned) [Example 8.5, (1R,3S and 1S,3R) or (1R,3R and 1S,3S)-(8-amino-5-methyl-6-(oxazol-2-yl)-[1,2,4]triazolo[1,5-a]pyrazin-2-yl)-1-methylcyclohexan-1-ol] |
| 6.5 nM | 142 nM | Cc1c(-c2ncco2)nc(N)c2nc(C3CCC(C)(O)C3)nn12 (single isomer, unassigned) [Example 8.6, (1R,3S and 1S,3R) or (1R,3R and 1S,3S)-(8-amino-5-methyl-6-(oxazol-2-yl)-[1,2,4]triazolo[1,5-a]pyrazin-2-yl)-1-methylcyclopentan-1-ol] |
| 143 nM | 2590 nM | Cc1c(-c2ncco2)nc(N)c2nc(C3CCC(C)(O)C3)nn12 (single isomer, unassigned) [Example 8.7, (1R,3S and 1S,3R) or (1R,3R and 1S,3S)-3-(8-amino-5-methyl-6-(oxazol-2-yl)-[1,2,4]triazolo[1,5-a]pyrazin-2-yl)-1-methylcyclopentan-1-ol] |
| 70.5 nM | 350 nM | Cc1c(-c2cccc(F)c2)nc(N)c2nc(C3CCC(C)(O)C3)nn12 (single isomer, unassigned) [Example 8.8, (1R,3S and 1S,3R) or (1R,3R and 1S,3S)-3-(8-amino-6-(3-fluorophenyl)-5-methyl-[1,2,4]triazolo[1,5-a]pyrazin-2-yl)-1-methylcyclopentan-1-ol] |
| 357 nM | 2090 nM | Cc1c(-c2cccc(F)c2)nc(N)c2nc(C3CCC(C)(O)C3)nn12 (single isomer, unassigned) [Example 8.9, (1R,3S and 1S,3R) or (1R,3R and 1S,3S)-3-(8-amino-6-(3-fluorophenyl)-5-methyl-[1,2,4]triazolo[1,5-a]pyrazin-2-yl)-1-methylcyclopentan-1-ol] |
